Target: ABCB1 (Homo sapiens, UniProt P08183)
Type: biochemical

ABCB1, sequence (P08183 whole entry): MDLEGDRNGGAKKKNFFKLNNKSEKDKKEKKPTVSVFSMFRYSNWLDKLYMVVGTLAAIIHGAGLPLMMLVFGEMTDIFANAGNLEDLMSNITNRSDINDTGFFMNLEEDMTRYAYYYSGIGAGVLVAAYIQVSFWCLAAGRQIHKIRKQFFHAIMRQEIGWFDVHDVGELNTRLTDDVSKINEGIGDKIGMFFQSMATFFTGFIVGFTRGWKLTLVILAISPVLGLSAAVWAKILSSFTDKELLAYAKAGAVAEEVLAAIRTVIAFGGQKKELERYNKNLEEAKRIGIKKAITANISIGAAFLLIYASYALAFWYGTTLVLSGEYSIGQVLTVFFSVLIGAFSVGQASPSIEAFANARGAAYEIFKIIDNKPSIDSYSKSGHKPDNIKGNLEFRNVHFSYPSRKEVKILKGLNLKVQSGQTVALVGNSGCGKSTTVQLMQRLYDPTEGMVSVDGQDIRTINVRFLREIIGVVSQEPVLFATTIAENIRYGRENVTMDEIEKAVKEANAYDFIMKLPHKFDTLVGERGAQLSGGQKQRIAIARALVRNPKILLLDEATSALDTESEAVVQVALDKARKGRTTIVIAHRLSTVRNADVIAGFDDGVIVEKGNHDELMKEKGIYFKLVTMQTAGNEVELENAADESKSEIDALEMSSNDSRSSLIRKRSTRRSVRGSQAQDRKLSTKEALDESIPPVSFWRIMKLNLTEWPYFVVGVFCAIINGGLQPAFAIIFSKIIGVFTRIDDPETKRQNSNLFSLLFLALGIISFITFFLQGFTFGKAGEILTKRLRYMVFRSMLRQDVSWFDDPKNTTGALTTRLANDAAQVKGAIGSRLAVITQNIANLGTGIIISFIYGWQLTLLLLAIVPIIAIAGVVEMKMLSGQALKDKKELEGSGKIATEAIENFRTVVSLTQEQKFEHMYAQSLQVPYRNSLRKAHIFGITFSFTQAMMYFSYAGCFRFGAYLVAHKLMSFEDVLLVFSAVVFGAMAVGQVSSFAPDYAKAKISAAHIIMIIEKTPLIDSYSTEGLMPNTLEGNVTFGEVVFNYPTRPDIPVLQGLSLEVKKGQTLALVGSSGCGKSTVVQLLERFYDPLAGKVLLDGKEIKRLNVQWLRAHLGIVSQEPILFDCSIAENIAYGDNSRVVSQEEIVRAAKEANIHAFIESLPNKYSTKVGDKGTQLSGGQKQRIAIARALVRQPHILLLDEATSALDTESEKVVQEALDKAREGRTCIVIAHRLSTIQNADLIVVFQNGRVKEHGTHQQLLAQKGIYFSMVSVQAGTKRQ

- vanadate-sensitive ATPase stimulation in crude membranes of High-five cells expr: 2.5 to 5 µM
Structure (SMILES): CCN(CC)CCCCNc1ncc2cc(-c3cc(OC)cc(OC)c3)c(NC(=O)NC(C)(C)C)nc2n1 [PD173074]

Reference: paper PMC8366681 (Cancer chemotherapy and pharmacology, 2013)
